Data taken from ChEMBL document CHEMBL1201862, “PubChem BioAssay data set” (2004).
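Values below derive from 48-hour exposures of cells grown in 96-well plates, with endpoints linearly interpolated between the two concentrations bracketing the appropriate inhibition level. At the GI50, growth is halved.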 The source made the active and inactive calls. No stated cut-off is given here; in the data, active = GI50 up to about 1.1 µM and inactive = higher.

Key:
Assay in all cases: growth of human tumour cells (NCI), 48 h
786-0 = test system: 786-0
A498 = test system: A498
CAKI-1 = test system: CAKI-1
HL-60 = test system: HL-60
HOP-62 = test system: HOP-62
HT-29 = test system: HT-29
KM12 = test system: KM12
M14 = test system: M14
MDA-N = test system: MDA-N
OVCAR-3 = test system: OVCAR-3
OVCAR-8 = test system: OVCAR-8
RPMI-8226 = test system: RPMI-8226
SF-295 = test system: SF-295
SK-MEL-28 = test system: SK-MEL-28
SW-620 = test system: SW-620
TK-10 = test system: TK-10
UACC-62 = test system: UACC-62
DMS-114 = test system: DMS-114
KM-20L2 = test system: KM-20L2

SMILES | GI50 (786-0) | GI50 (A498) | GI50 (CAKI-1) | GI50 (HL-60) | GI50 (HOP-62) | GI50 (HT-29) | GI50 (KM12) | GI50 (M14) | GI50 (MDA-N) | GI50 (OVCAR-3) | GI50 (OVCAR-8) | GI50 (RPMI-8226) | GI50 (SF-295) | GI50 (SK-MEL-28) | GI50 (SW-620) | GI50 (TK-10) | GI50 (UACC-62) | GI50 (DMS-114) | GI50 (KM-20L2)
COC(=O)c1cc2c(n1S(=O)(=O)c1ccc(C)cc1)C(=O)C(=O)c1[nH]cc(C(=O)OCc3ccccc3)c1-2 | 0.23 µM (active) | 1.65 µM (inactive) | 0.355 µM (active) | 0.0289 µM (active) | 0.149 µM (active) | 0.273 µM (active) | 0.231 µM (active) | 0.0621 µM (active) | < 0.01 µM (active) | < 0.0141 µM (active) | 0.0989 µM (active) | 0.0883 µM (active) | 0.12 µM (active) | 0.107 µM (active) | 0.0514 µM (active) | 0.716 µM (active) | 0.0555 µM (active) | – | –
O=c1[nH]c(=O)n(C2CC(O)C(CO)O2)cc1C#Cc1c(F)c(F)c(F)c(F)c1F (stereo unspecified) | > 100 µM (inactive) | – | > 100 µM (inactive) | – | > 100 µM (inactive) | > 100 µM (inactive) | > 100 µM (inactive) | > 100 µM (inactive) | – | > 100 µM (inactive) | > 100 µM (inactive) | > 100 µM (inactive) | > 100 µM (inactive) | > 100 µM (inactive) | > 100 µM (inactive) | – | > 100 µM (inactive) | > 100 µM (inactive) | > 100 µM (inactive)
COc1nc2c(OC)cccc2c(OC)c1C=O | > 100 µM (inactive) | – | – | > 100 µM (inactive) | 22.1 µM (inactive) | > 100 µM (inactive) | 75.5 µM (inactive) | > 100 µM (inactive) | – | > 100 µM (inactive) | > 100 µM (inactive) | > 100 µM (inactive) | > 100 µM (inactive) | > 100 µM (inactive) | 96.4 µM (inactive) | > 100 µM (inactive) | > 100 µM (inactive) | > 100 µM (inactive) | > 100 µM (inactive)
CN(C)C=C1C(Cl)=C(C=O)CC(C=O)=C1Cl | 11.8 µM (inactive) | – | 11.3 µM (inactive) | 1.77 µM (inactive) | 23.7 µM (inactive) | 14 µM (inactive) | 6.46 µM (inactive) | 12.2 µM (inactive) | – | 13.5 µM (inactive) | 3.13 µM (inactive) | 2.39 µM (inactive) | 18.3 µM (inactive) | 6.59 µM (inactive) | 1.56 µM (inactive) | 16.7 µM (inactive) | 15.1 µM (inactive) | 11.2 µM (inactive) | 19.5 µM (inactive)
COC(=O)C12C3C=CC(O3)C1C1C=CC2O1 (stereo unspecified) | > 100 µM (inactive) | – | – | > 100 µM (inactive) | – | > 100 µM (inactive) | > 100 µM (inactive) | > 100 µM (inactive) | – | > 100 µM (inactive) | > 100 µM (inactive) | > 100 µM (inactive) | > 100 µM (inactive) | > 100 µM (inactive) | > 100 µM (inactive) | > 100 µM (inactive) | – | – | > 100 µM (inactive)
O=C(O)CC1NC(/C(=C/c2ccccc2)NC(=O)c2ccccc2)OC1=O (stereo unspecified) | 29.4 µM (inactive) | > 100 µM (inactive) | > 100 µM (inactive) | 11.6 µM (inactive) | 18.9 µM (inactive) | 29.8 µM (inactive) | 17.4 µM (inactive) | 17.1 µM (inactive) | 30.1 µM (inactive) | 20.6 µM (inactive) | 25.9 µM (inactive) | 20.2 µM (inactive) | 38.1 µM (inactive) | 24.3 µM (inactive) | 19.5 µM (inactive) | > 100 µM (inactive) | 22.5 µM (inactive) | – | –
CC1CCCC(C(O)CC2CC(=O)NC(=O)C2)C1O (stereo unspecified) | > 100 µM (inactive) | > 100 µM (inactive) | > 100 µM (inactive) | > 100 µM (inactive) | > 100 µM (inactive) | > 100 µM (inactive) | > 100 µM (inactive) | > 100 µM (inactive) | > 100 µM (inactive) | > 100 µM (inactive) | > 100 µM (inactive) | > 100 µM (inactive) | > 100 µM (inactive) | > 100 µM (inactive) | > 100 µM (inactive) | > 100 µM (inactive) | > 100 µM (inactive) | – | –
O=c1oc2ccccc2cc1-c1nnc(-c2ccccc2)s1 | 17.3 µM (inactive) | 15.1 µM (inactive) | > 64.9 µM (inactive) | 0.0279 µM (active) | 16.1 µM (inactive) | 10.1 µM (inactive) | 4.61 µM (inactive) | > 56.1 µM (inactive) | 2.54 µM (inactive) | 14.5 µM (inactive) | 22.1 µM (inactive) | > 55.7 µM (inactive) | 28.2 µM (inactive) | 98.6 µM (inactive) | 12.1 µM (inactive) | > 36.6 µM (inactive) | > 100 µM (inactive) | – | –
Cn1c(=O)c2c(nc(NCCCCl)n2CC(=O)NCCCCl)n(C)c1=O | > 100 µM (inactive) | > 100 µM (inactive) | > 100 µM (inactive) | > 100 µM (inactive) | > 100 µM (inactive) | > 100 µM (inactive) | > 100 µM (inactive) | > 100 µM (inactive) | > 100 µM (inactive) | > 100 µM (inactive) | > 100 µM (inactive) | > 100 µM (inactive) | > 100 µM (inactive) | > 100 µM (inactive) | > 100 µM (inactive) | > 100 µM (inactive) | > 100 µM (inactive) | – | –
COc1ccccc1NC(=O)C1=C(C)NC(C)=C(C(=O)Nc2ccccc2OC)C1c1cccc2c1OCO2 | > 100 µM (inactive) | > 100 µM (inactive) | > 100 µM (inactive) | 41.2 µM (inactive) | > 100 µM (inactive) | > 100 µM (inactive) | 60.7 µM (inactive) | > 100 µM (inactive) | – | > 100 µM (inactive) | > 100 µM (inactive) | 33 µM (inactive) | > 100 µM (inactive) | > 100 µM (inactive) | > 100 µM (inactive) | > 100 µM (inactive) | > 100 µM (inactive) | 77.3 µM (inactive) | > 100 µM (inactive)
NC(=O)C(=CNC(=S)Nc1cccc(C(F)(F)F)c1)C(N)=O | > 100 µM (inactive) | > 100 µM (inactive) | 28.4 µM (inactive) | > 100 µM (inactive) | > 100 µM (inactive) | > 100 µM (inactive) | > 100 µM (inactive) | > 100 µM (inactive) | > 100 µM (inactive) | > 100 µM (inactive) | > 100 µM (inactive) | > 100 µM (inactive) | > 100 µM (inactive) | > 100 µM (inactive) | > 100 µM (inactive) | > 100 µM (inactive) | > 100 µM (inactive) | – | –
COc1c2c(cc3c1C1(O)Cc4ccc5c(c4C[N+]1(C)CC3)OCO5)OCO2 (stereo unspecified) | > 100 µM (inactive) | > 100 µM (inactive) | > 100 µM (inactive) | 42.7 µM (inactive) | > 100 µM (inactive) | 33.9 µM (inactive) | > 100 µM (inactive) | > 100 µM (inactive) | > 100 µM (inactive) | > 100 µM (inactive) | > 100 µM (inactive) | 85.3 µM (inactive) | > 100 µM (inactive) | > 100 µM (inactive) | > 100 µM (inactive) | > 100 µM (inactive) | > 100 µM (inactive) | – | –
Sc1nnc(C23CC4CC(CC(C4)C2)C3)n1-c1ccc(Cl)cc1 | 14.6 µM (inactive) | 19.1 µM (inactive) | 1.96 µM (inactive) | 2.77 µM (inactive) | 13 µM (inactive) | 14.6 µM (inactive) | 14.6 µM (inactive) | 15.1 µM (inactive) | 15.6 µM (inactive) | 10.8 µM (inactive) | 15.8 µM (inactive) | 8.89 µM (inactive) | 11.1 µM (inactive) | 11.9 µM (inactive) | 16.1 µM (inactive) | 22.3 µM (inactive) | 8.26 µM (inactive) | – | –
C[C@@H](C1CCC2C3C(=CC(=O)[C@@]21C)[C@H](C)[C@]1(CCC(=O)O1)C1OC31)[C@H]1C[C@]2(C)O[C@@](C)(O1)OC2(C)C (stereo partly specified) | > 100 µM (inactive) | > 100 µM (inactive) | > 100 µM (inactive) | > 100 µM (inactive) | – | > 100 µM (inactive) | – | > 100 µM (inactive) | – | – | > 100 µM (inactive) | > 100 µM (inactive) | > 100 µM (inactive) | > 100 µM (inactive) | > 100 µM (inactive) | > 100 µM (inactive) | > 100 µM (inactive) | > 100 µM (inactive) | > 100 µM (inactive)
C=CCOn1c(C=C)nc2c(C)cccc21 | 2.18 µM (inactive) | 5.66 µM (inactive) | 2.06 µM (inactive) | 1.98 µM (inactive) | 3.77 µM (inactive) | 3.36 µM (inactive) | 3.41 µM (inactive) | 3.61 µM (inactive) | 3.13 µM (inactive) | 2.48 µM (inactive) | 2.85 µM (inactive) | 2.43 µM (inactive) | 5.58 µM (inactive) | 10.6 µM (inactive) | 3.2 µM (inactive) | 2.63 µM (inactive) | 2.56 µM (inactive) | – | –
[O-][n+]1ccc(NO)c2ccccc21 | 2.05 µM (inactive) | 0.673 µM (active) | 1.16 µM (inactive) | 0.923 µM (active) | 1.79 µM (inactive) | 1.19 µM (inactive) | 0.984 µM (active) | 1.93 µM (inactive) | 4.72 µM (inactive) | 2.3 µM (inactive) | 0.561 µM (active) | 0.297 µM (active) | 0.374 µM (active) | 1.3 µM (inactive) | 1.56 µM (inactive) | 2.02 µM (inactive) | 1.22 µM (inactive) | – | –
CN(C)c1ccc2cc3ccc(N(C)C)cc3nc2c1 [ACRIDINE ORANGE] | 0.638 µM (active) | 4.08 µM (inactive) | 1.79 µM (inactive) | 0.331 µM (active) | 2.02 µM (inactive) | 0.403 µM (active) | 0.488 µM (active) | 3.05 µM (inactive) | 1.19 µM (inactive) | 2.95 µM (inactive) | 1.56 µM (inactive) | 0.527 µM (active) | 2.08 µM (inactive) | 3.37 µM (inactive) | 0.49 µM (active) | 2.86 µM (inactive) | 4.05 µM (inactive) | – | –
